Experimental data: patent US20060083657A1, “Indicator device having an active agent encapsulated in an electrospun nanofiber” (STERIS Inc., priority 2004, published 2006)

Legend:
[1] = system: Staphylococcus aureus ATCC 6538; assay: Disk diffusion method, zone of inhibition on lawn plates; type: cell-based; details: polymer mat disk, 37° C., 7 days
Description: (§1) The effectiveness of the CHG polymer mat was investigated using a disk diffusion method on Staphylococcus aureus ATCC 6538 and Escherichia coli ATCC 25922 lawn plates. The plates were prepared for each organism by dispensing and spreading 0.1 mL of the bacterium over the entire surface of prepared tryptic soy agar plates to create a “lawn.” Concentrations of chlorhexidine gluconate (CHG) at 0.25%, 0.5%, and 1.0% were electrospun with Tecoflex to produce an antimicrobial polymer mat. The polymer mats were cut into two 0.5-1.0 inch diameter disks for each CHG concentration. One disk per plate was placed into the center of the bacterial plate The plates were then incubated at 37° C. for 7 days to determine the zone of inhibition or antimicrobial coverage around the disk (measured in millimeters diameter), which simulates the persistence of an antimicrobial dressing to inactivate resident microorganisms on the skin. For S. aureus, 0.25%, 0.50%, and 1.0% CHG was effective showing mean zones of 20 mm, 25 mm, and 25 mm zones, respectively at 7 days, while at the same concentrations E. coli mean zones were 11 mm, 23 mm, and 28 mm.

[2] = system: Escherichia coli ATCC 25922; assay: as above; type: cell-based; details: polymer mat disk, 37° C., 7 days
Description: as §1

[3] = 0.25% CHG electrospun with Tecoflex
[4] = 0.50% CHG electrospun with Tecoflex
[5] = 1.0% CHG electrospun with Tecoflex

N=C(NCCCCCCNC(=N)NC(=N)Nc1ccc(Cl)cc1)NC(=N)Nc1ccc(Cl)cc1.O=C(O)[C@H](O)[C@@H](O)[C@H](O)[C@H](O)CO.O=C(O)[C@H](O)[C@@H](O)[C@H](O)[C@H](O)CO [CHG, Chlorhexidine Gluconate]
mean zone of inhibition (diameter) [1, 3]: 20 mm | mean zone of inhibition (diameter) [1, 4]: 25 mm | mean zone of inhibition (diameter) [1, 5]: 25 mm | mean zone of inhibition (diameter) [2, 3]: 11 mm | mean zone of inhibition (diameter) [2, 4]: 23 mm | mean zone of inhibition (diameter) [2, 5]: 28 mm
